# Assay results as given in PubChem BioAssay AID250 (DTP/NCI, 2004).
# Values joined by “and” are separate entries in the source; they are usually repeats but may differ in a detail not shown here. Identical values can stand only once. Inconclusive results and toxic doses are left out.
# Test system: BDF1 mice, L1210 leukemia sc, survival T/C
# Experiment: NCI In Vivo Anticancer Drug Screen. Data for tumor model L1210 Leukemia (subcutaneous) in B6D2F1 (BDF1) mice
# Conditions: higher = longer survival
# In short: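 Read-out: T/C ratio, i.e. survival or tumor size in treated mice over that in vehicle-treated controls, from mice bearing transplantable tumors.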
# [1] = endpoint: median survival time, dose: 3.0 mg/kg/injection, schedule: Q01DX Z (sc), vehicle: saline
# [2] = endpoint: median survival time, dose: 14.0 mg/kg/injection, schedule: Q01DX Z (sc), vehicle: saline
# [3] = endpoint: median survival time, dose: 65.0 mg/kg/injection, schedule: Q01DX Z (sc), vehicle: saline
# [4] = endpoint: median survival time, dose: 108.0 mg/kg/injection, schedule: Q01DX Z (sc), vehicle: methylcellulose (MC)
# [5] = endpoint: median survival time, dose: 300.0 mg/kg/injection, schedule: Q01DX Z (sc), vehicle: methylcellulose (MC)
# [6] = endpoint: median survival time, dose: 39.0 mg/kg/injection, schedule: Q01DX Z (sc), vehicle: methylcellulose (MC)
smiles,measurement,setting,value
C[n+]1ccc(Nc2ccc(NC(=O)c3ccc(Nc4cc[n+](C)c5ccc(N)cc45)cc3)cc2)cc1,T/C,"endpoint: median survival time, dose: 0.5 mg/kg/injection, schedule: Q01DX009 (ip), vehicle: Klucel (hydroxypropylcellulose) (HPC)",100 % of control
same,T/C,"endpoint: median survival time, dose: 1.0 mg/kg/injection, schedule: Q01DX009 (ip), vehicle: Klucel (hydroxypropylcellulose) (HPC)",110 % of control
same,T/C,"endpoint: median survival time, dose: 2.0 mg/kg/injection, schedule: Q01DX009 (ip), vehicle: Klucel (hydroxypropylcellulose) (HPC)",182 % of control
same,T/C,"endpoint: median survival time, dose: 4.0 mg/kg/injection, schedule: Q01DX009 (ip), vehicle: Klucel (hydroxypropylcellulose) (HPC)",250 % of control
same,T/C,"endpoint: median survival time, dose: 8.0 mg/kg/injection, schedule: Q01DX009 (ip), vehicle: Klucel (hydroxypropylcellulose) (HPC)",291 % of control
CNC=O,T/C,"endpoint: median survival time, dose: 112.0 mg/kg/injection, schedule: Q01DX Z (sc), vehicle: saline",100 % of control
same,T/C,"endpoint: median survival time, dose: 187.0 mg/kg/injection, schedule: Q01DX Z (sc), vehicle: saline",104 % of control
same,T/C,"endpoint: median survival time, dose: 311.0 mg/kg/injection, schedule: Q01DX Z (sc), vehicle: saline",116 % of control
N=[N+]=CC(=O)OCC(N)C(=O)O (centres undefined),T/C,[1],105 % of control
same,T/C,"endpoint: median survival time, dose: 4.0 mg/kg/injection, schedule: Q01DX Z (sc), vehicle: water",110 % of control
same,T/C,"endpoint: median survival time, dose: 5.0 mg/kg/injection, schedule: Q01DX Z (sc), vehicle: saline",110 % of control
same,T/C,"endpoint: median survival time, dose: 6.72 mg/kg/injection, schedule: Q01DX Z (sc), vehicle: water",110 % of control
same,T/C,"endpoint: median survival time, dose: 8.0 mg/kg/injection, schedule: Q01DX Z (sc), vehicle: water",172 % of control
same,T/C,"endpoint: median survival time, dose: 8.0 mg/kg/injection, schedule: Q02DX Z (sc), vehicle: water",100 % of control
same,T/C,"endpoint: median survival time, dose: 8.4 mg/kg/injection, schedule: Q01DX Z (sc), vehicle: saline",110 % of control
same,T/C,"endpoint: median survival time, dose: 11.2 mg/kg/injection, schedule: Q01DX Z (sc), vehicle: water",110 % of control
same,T/C,[2],120 % of control
same,T/C,"endpoint: median survival time, dose: 16.0 mg/kg/injection, schedule: Q01DX Z (sc), vehicle: water",168 % of control
same,T/C,"endpoint: median survival time, dose: 16.0 mg/kg/injection, schedule: Q02DX Z (sc), vehicle: water",100 % of control
same,T/C,"endpoint: median survival time, dose: 31.1 mg/kg/injection, schedule: Q01DX Z (sc), vehicle: water",120 % of control
same,T/C,"endpoint: median survival time, dose: 32.0 mg/kg/injection, schedule: Q02DX Z (sc), vehicle: water",100 % of control
same,T/C,"endpoint: median survival time, dose: 64.0 mg/kg/injection, schedule: Q01DX Z (sc), vehicle: water",118 % of control
same,T/C,[3],100 % of control
same,T/C,"endpoint: median survival time, dose: 86.1 mg/kg/injection, schedule: Q01DX Z (sc), vehicle: water",110 % of control
same,T/C,"endpoint: median survival time, dose: 128.0 mg/kg/injection, schedule: Q02DX Z (sc), vehicle: water",100 % of control
CC/C(=C(/CC)c1ccc(O)cc1)c1ccc(O)cc1,T/C,[4],100 % of control
same,T/C,[5],100 % of control
COc1ccc2c(Nc3ccc(NS(C)(=O)=O)cc3)c3ccccc3nc2c1,T/C,"endpoint: mean survival time, dose: 6.25 mg/kg/injection, schedule: Q01DX009 (sc), vehicle: saline",109 % of control
CCCCN(CCCC)P(=O)(N1CC1)N1CC1,T/C,"endpoint: median survival time, dose: 1.8 mg/kg/injection, schedule: Q01DX Z (sc), vehicle: saline",110 % of control
same,T/C,[1],110 % of control
COc1ccc2nc3cc(Cl)ccc3c(NCCN(CCCl)CCCl)c2c1,T/C,"endpoint: median survival time, dose: 0.65 mg/kg/injection, schedule: Q01DX Z (sc), vehicle: methylcellulose (MC)",105 % of control
same,T/C,[6],100 % of control
CC(=O)[C@@]1(O)CC[C@H]2[C@@H]3C[C@H](C)C4=CC(=O)C=C[C@]4(C)[C@@]3(F)[C@@H](O)C[C@@]21C,T/C,[6],111 % of control
same,T/C,"endpoint: median survival time, dose: 65.0 mg/kg/injection, schedule: Q01DX Z (sc), vehicle: methylcellulose (MC)",105 % of control
same,T/C,[4],111 % of control
same,T/C,"endpoint: median survival time, dose: 180.0 mg/kg/injection, schedule: Q01DX Z (sc), vehicle: methylcellulose (MC)",111 % of control
same,T/C,[5],111 % of control
same,T/C,"endpoint: median survival time, dose: 500.0 mg/kg/injection, schedule: Q01DX Z (sc), vehicle: methylcellulose (MC)",100 % of control
N[C@@H](Cc1ccc(N(CCCl)CCCl)cc1)C(=O)O,T/C,"endpoint: median survival time, dose: 0.65 mg/kg/injection, schedule: Q01DX Z (sc), vehicle: water",100 % of control
same,T/C,"endpoint: median survival time, dose: 1.09 mg/kg/injection, schedule: Q01DX Z (sc), vehicle: water",100 % of control
same,T/C,"endpoint: median survival time, dose: 1.81 mg/kg/injection, schedule: Q01DX Z (sc), vehicle: water",95 % of control
same,T/C,"endpoint: median survival time, dose: 3.02 mg/kg/injection, schedule: Q01DX Z (sc), vehicle: water",100 % of control
same,T/C,"endpoint: median survival time, dose: 5.04 mg/kg/injection, schedule: Q01DX Z (sc), vehicle: water",104 % of control
same,T/C,"endpoint: median survival time, dose: 8.4 mg/kg/injection, schedule: Q01DX Z (sc), vehicle: water",100 % of control
same,T/C,[2],114 % of control
same,T/C,"endpoint: median survival time, dose: 14.0 mg/kg/injection, schedule: Q01DX Z (sc), vehicle: water",109 % of control
same,T/C,"endpoint: median survival time, dose: 23.0 mg/kg/injection, schedule: Q01DX Z (sc), vehicle: saline",123 % of control
same,T/C,"endpoint: median survival time, dose: 23.3 mg/kg/injection, schedule: Q01DX Z (sc), vehicle: water",109 % of control
same,T/C,"endpoint: median survival time, dose: 38.9 mg/kg/injection, schedule: Q01DX Z (sc), vehicle: water",118 % of control
same,T/C,"endpoint: median survival time, dose: 39.0 mg/kg/injection, schedule: Q01DX Z (sc), vehicle: saline",104 % of control
same,T/C,[3],104 % of control
CCCC(=O)OCC1OC(n2cnc3c(=S)nc(N)[nH]c32)C(OC(=O)CCC)C1OC(=O)CCC (centres undefined),T/C,"endpoint: median survival time, dose: 14.0 mg/kg/injection, schedule: Q01DX Z (sc), vehicle: carboxymethylcellulose (CMC)",112 % of control
same,T/C,"endpoint: median survival time, dose: 23.0 mg/kg/injection, schedule: Q01DX Z (sc), vehicle: carboxymethylcellulose (CMC)",100 % of control
same,T/C,"endpoint: median survival time, dose: 39.0 mg/kg/injection, schedule: Q01DX Z (sc), vehicle: carboxymethylcellulose (CMC)",112 % of control
same,T/C,"endpoint: median survival time, dose: 65.0 mg/kg/injection, schedule: Q01DX Z (sc), vehicle: carboxymethylcellulose (CMC)",175 % of control
same,T/C,"endpoint: median survival time, dose: 108.0 mg/kg/injection, schedule: Q01DX Z (sc), vehicle: carboxymethylcellulose (CMC)",168 % of control
same,T/C,"endpoint: median survival time, dose: 180.0 mg/kg/injection, schedule: Q01DX Z (sc), vehicle: carboxymethylcellulose (CMC)",150 % of control
CO[C@H](C(=O)[C@@H](O)[C@@H](C)O)[C@@H]1Cc2cc3cc(OC4CC(OC5CC(O)C(O)C(C)O5)C(O)C(C)O4)c(C)c(O)c3c(O)c2C(=O)[C@H]1OC1CC(OC2CC(OC3CC(C)(O)C(O)C(C)O3)C(O)C(C)O2)C(O)C(C)O1 (some centres undefined),T/C,"endpoint: median survival time, dose: 0.12 mg/kg/injection, schedule: Q01DX009 (ip), vehicle: water",105 % of control
same,T/C,"endpoint: median survival time, dose: 0.12 mg/kg/injection, schedule: Q01DX009 (sc), vehicle: water",103 % of control
same,T/C,"endpoint: median survival time, dose: 0.25 mg/kg/injection, schedule: Q01DX009 (ip), vehicle: water",94 % of control
same,T/C,"endpoint: median survival time, dose: 0.25 mg/kg/injection, schedule: Q01DX009 (sc), vehicle: water",100 % of control and 103 % of control
same,T/C,"endpoint: median survival time, dose: 0.5 mg/kg/injection, schedule: Q01DX009 (sc), vehicle: water",95 % of control and 110 % of control
same,T/C,"endpoint: median survival time, dose: 1.0 mg/kg/injection, schedule: Q01DX009 (ip), vehicle: water",93 % of control
same,T/C,"endpoint: median survival time, dose: 1.0 mg/kg/injection, schedule: Q01DX009 (sc), vehicle: water",101 % of control
same,T/C,"endpoint: median survival time, dose: 2.0 mg/kg/injection, schedule: Q01DX009 (sc), vehicle: water",96 % of control
NC(CSC(c1ccccc1)(c1ccccc1)c1ccccc1)C(=O)O (centres undefined),T/C,"endpoint: median survival time, dose: 5.0 mg/kg/injection, schedule: Q03HX003 (sc), vehicle: saline",114 % of control
same,T/C,"endpoint: median survival time, dose: 8.4 mg/kg/injection, schedule: Q03HX003 (sc), vehicle: saline",117 % of control
same,T/C,"endpoint: median survival time, dose: 23.0 mg/kg/injection, schedule: Q03HX003 (sc), vehicle: saline",150 % of control
same,T/C,"endpoint: median survival time, dose: 39.0 mg/kg/injection, schedule: Q03HX003 (sc), vehicle: saline",92 % of control
same,T/C,"endpoint: median survival time, dose: 65.0 mg/kg/injection, schedule: Q01DX009 (sc), vehicle: saline",150 % of control
same,T/C,"endpoint: median survival time, dose: 108.0 mg/kg/injection, schedule: Q04DX003 (sc), vehicle: saline",121 % of control
same,T/C,"endpoint: median survival time, dose: 300.0 mg/kg/injection, schedule: Q02DX005 (sc), vehicle: saline",89 % of control
same,T/C,"endpoint: median survival time, dose: 500.0 mg/kg/injection, schedule: Q02DX005 (sc), vehicle: saline",92 % of control
same,T/C,"endpoint: median survival time, dose: 833.0 mg/kg/injection, schedule: Q04DX003 (sc), vehicle: saline",114 % of control
